Laboratory results reported in US12281095B2, “Pesticidally active diazine-amide compounds” (SYNGENTA CROP PROTECTION AG, priority 2019, dated 2025).

Experiments:
Format in all cases: in vivo
[1] = test system: Chilo suppressalis (Striped Rice Stemborer); experiment: Example B4: Chilo suppressalis (Striped Rice Stemborer), artificial diet; conditions: 144 h, application rate of 200 ppm, L2 larvae, 6 days after infestation, read-out: control in at least one of the three categories (mortality, anti-feedant or growth inhibition)
Procedure: Example B4: Chilo suppressalis (Striped Rice Stemborer)
24-well microtiter plates with artificial diet were treated with aqueous test solutions prepared from 10′000 ppm DMSO stock solutions by pipetting. After drying, the plates were infested with L2 larvae (6-8 per well). The samples were assessed for mortality, anti-feeding effect, and growth inhibition in comparison to untreated samples 6 days after infestation. Control of Chilo suppressalis by a test sample is given when at least one of the categories mortality, anti-feedant effect, and growth inhibition is higher than the untreated sample.

[2] = test system: Spodoptera littoralis (Egyptian Cotton Leaf Worm); experiment: Example B9: Spodoptera littoralis (Egyptian Cotton Leaf Worm), sprayed cotton leaf discs; conditions: foliar, 72 h, application rate of 200 ppm, L1 larvae, 3 days after infestation, read-out: control in at least one of the three categories (mortality, anti-feedant or growth inhibition)
[3] = test system: Diabrotica balteata (Corn Root Worm); experiment: Example B1: Diabrotica balteata (Corn Root Worm), sprayed maize sprouts; conditions: 96 h, application rate of 200 ppm, L2 larvae, 4 days after infestation, read-out: control in at least one of the two categories (mortality or growth inhibition)
Procedure: Example B1: Diabrotica balteata (Corn Root Worm)
Maize sprouts placed onto an agar layer in 24-well microtiter plates were treated with aqueous test solutions prepared from 10′000 ppm DMSO stock solutions by spraying. After drying, the plates were infested with L2 larvae (6 to 10 per well). The samples were assessed for mortality and growth inhibition in comparison to untreated samples 4 days after infestation.

[4] = test system: Plutella xylostella (Diamond Back Moth); experiment: Example B5: Plutella xylostella (Diamond Back Moth), artificial diet, 24-well; conditions: 192 h, application rate of 200 ppm, eggs, 8 days after infestation, read-out: control in at least one of the two categories (mortality or growth inhibition)
Procedure: Example B5: Plutella xylostella (Diamond Back Moth)
24-well microtiter plates with artificial diet were treated with aqueous test solutions prepared from 10′000 ppm DMSO stock solutions by pipetting. After drying, Plutella eggs were pipetted through a plastic stencil onto a gel blotting paper and the plate was closed with it. The samples were assessed for mortality and growth inhibition in comparison to untreated samples 8 days after infestation.

CC(NC(=O)c1cc(C(F)(F)F)nc(C2(C#N)CC2)c1)c1nccnc1-c1ccc(OC(F)F)cn1 (centres unmarked) [P1, 2-(1-cyanocyclopropyl)-N-[1-[3-[5-(difluoromethoxy)-2-pyridyl]pyrazin-2-yl]ethyl]-6-(trifluoromethyl)pyridine-4-carboxamide]
≥ 80%: percent control (mortality, anti-feedant effect or growth inhibition) at 200 ppm [1] | percent control (mortality, anti-feedant effect or growth inhibition) at 200 ppm [2] | percent control (mortality or growth inhibition) at 200 ppm [3] | percent control (mortality or growth inhibition) at 200 ppm [4]

CC(NC(=O)c1cc(C(F)(F)F)cc(C2(C#N)CC2)c1)c1nccnc1-c1ccc(OC(F)F)cn1 (centres unmarked) [P3, 3-(1-cyanocyclopropyl)-N-[1-[3-[5-(difluoromethoxy)-2-pyridyl]pyrazin-2-yl]ethyl]-5-(trifluoromethyl)benzamide]
≥ 80%: percent control (mortality, anti-feedant effect or growth inhibition) at 200 ppm [1] | percent control (mortality, anti-feedant effect or growth inhibition) at 200 ppm [2] | percent control (mortality or growth inhibition) at 200 ppm [3] | percent control (mortality or growth inhibition) at 200 ppm [4]

CC(NC(=O)c1cc(C(F)(F)F)cc(C(F)(F)C2CC2)c1)c1nccnc1-c1ncc(OCC(F)(F)F)cn1 (centres unmarked) [P4, 3-[cyclopropyl(difluoro)methyl]-N-[1-[3-[5-(2,2,2-trifluoroethoxy)pyrimidin-2-yl]pyrazin-2-yl]ethyl]-5-(trifluoromethyl)benzamide]
≥ 80%: percent control (mortality, anti-feedant effect or growth inhibition) at 200 ppm [1] | percent control (mortality, anti-feedant effect or growth inhibition) at 200 ppm [2] | percent control (mortality or growth inhibition) at 200 ppm [3] | percent control (mortality or growth inhibition) at 200 ppm [4]

CC(NC(=O)c1cc(C(F)(F)F)cc(C(F)(F)C2CC2)c1)c1nccnc1-c1ccc(OC(F)F)cn1 (centres unmarked) [P5, 3-[cyclopropyl(difluoro)methyl]-N-[1-[3-[5-(difluoromethoxy)-2-pyridyl]pyrazin-2-yl]ethyl]-5-(trifluoromethyl)benzamide]
≥ 80%: percent control (mortality, anti-feedant effect or growth inhibition) at 200 ppm [1] | percent control (mortality, anti-feedant effect or growth inhibition) at 200 ppm [2] | percent control (mortality or growth inhibition) at 200 ppm [4]

CC(NC(=O)c1cc(C2CC2)cc(C(F)(F)F)c1)c1nccnc1-c1ncc(OCC(F)(F)F)cn1 (centres unmarked) [P6, 3-cyclopropyl-N-[1-[3-[5-(2,2,2-trifluoroethoxy)pyrimidin-2-yl]pyrazin-2-yl]ethyl]-5-(trifluoromethyl)benzamide]
≥ 80%: percent control (mortality, anti-feedant effect or growth inhibition) at 200 ppm [1] | percent control (mortality, anti-feedant effect or growth inhibition) at 200 ppm [2] | percent control (mortality or growth inhibition) at 200 ppm [3] | percent control (mortality or growth inhibition) at 200 ppm [4]

CC(NC(=O)c1cc(C2CC2)cc(C(F)(F)F)c1)c1nccnc1-c1ccc(OC(F)F)cn1 (centres unmarked) [P7, 3-cyclopropyl-N-[1-[3-[5-(difluoromethoxy)-2-pyridyl]pyrazin-2-yl]ethyl]-5-(trifluoromethyl)benzamide]
≥ 80%: percent control (mortality, anti-feedant effect or growth inhibition) at 200 ppm [1] | percent control (mortality, anti-feedant effect or growth inhibition) at 200 ppm [2] | percent control (mortality or growth inhibition) at 200 ppm [3] | percent control (mortality or growth inhibition) at 200 ppm [4]

CC(NC(=O)c1cc(C(F)(F)F)cc(C(C)(C)C#N)c1)c1nccnc1-c1ncc(OC(F)F)cn1 (centres unmarked) [P8, 3-(1-cyano-1-methyl-ethyl)-N-[1-[3-[5-(difluoromethoxy)pyrimidin-2-yl]pyrazin-2-yl]ethyl]-5-(trifluoromethyl)benzamide]
≥ 80%: percent control (mortality, anti-feedant effect or growth inhibition) at 200 ppm [1] | percent control (mortality, anti-feedant effect or growth inhibition) at 200 ppm [2] | percent control (mortality or growth inhibition) at 200 ppm [3] | percent control (mortality or growth inhibition) at 200 ppm [4]

CC(NC(=O)c1cc(C(F)(F)F)cc(C(C)(C)C#N)c1)c1nccnc1-c1ccc(OCC(F)(F)F)cn1 (centres unmarked) [P10, 3-(1-cyano-1-methyl-ethyl)-N-[1-[3-[5-(2,2,2-trifluoroethoxy)-2-pyridyl]pyrazin-2-yl]ethyl]-5-(trifluoromethyl)benzamide]
≥ 80%: percent control (mortality, anti-feedant effect or growth inhibition) at 200 ppm [1] | percent control (mortality, anti-feedant effect or growth inhibition) at 200 ppm [2] | percent control (mortality or growth inhibition) at 200 ppm [4]

CC(NC(=O)c1cc(C(F)(F)F)cc(S(=O)(=O)C(F)(F)F)c1)c1nccnc1-c1ccc(OC(F)F)cn1 (centres unmarked) [P11, N-[1-[3-[5-(difluoromethoxy)-2-pyridyl]pyrazin-2-yl]ethyl]-3-(trifluoromethyl)-5-(trifluoromethylsulfonyl)benzamide]
≥ 80%: percent control (mortality, anti-feedant effect or growth inhibition) at 200 ppm [1] | percent control (mortality, anti-feedant effect or growth inhibition) at 200 ppm [2] | percent control (mortality or growth inhibition) at 200 ppm [4]

CC(NC(=O)c1cc(C(F)(F)F)cc(S(=O)(=O)C(F)(F)F)c1)c1nccnc1-c1ncc(OCC(F)(F)F)cn1 (centres unmarked) [P12, N-[1-[3-[5-(2,2,2-trifluoroethoxy)pyrimidin-2-yl]pyrazin-2-yl]ethyl]-3-(trifluoromethyl)-5-(trifluoromethylsulfonyl)benzamide]
≥ 80%: percent control (mortality, anti-feedant effect or growth inhibition) at 200 ppm [1] | percent control (mortality, anti-feedant effect or growth inhibition) at 200 ppm [2] | percent control (mortality or growth inhibition) at 200 ppm [4]

CC(NC(=O)c1cc(C(F)(F)F)cc(C(C)(C)C#N)c1)c1nccnc1-c1ccc(OC(F)F)cn1 (centres unmarked) [P13, 3-(1-cyano-1-methyl-ethyl)-N-[1-[3-[5-(difluoromethoxy)-2-pyridyl]pyrazin-2-yl]ethyl]-5-(trifluoromethyl)benzamide]
≥ 80%: percent control (mortality, anti-feedant effect or growth inhibition) at 200 ppm [1] | percent control (mortality, anti-feedant effect or growth inhibition) at 200 ppm [2] | percent control (mortality or growth inhibition) at 200 ppm [3] | percent control (mortality or growth inhibition) at 200 ppm [4]

CC(NC(=O)c1cc(C2CC2)cc(C(F)(F)F)c1)c1nccnc1-c1ccc(C#N)cn1 (centres unmarked) [P14, N-[1-[3-(5-cyano-2-pyridyl)pyra-zin-2-yl]ethyl]-3-cyclopropyl-5-(trifluoromethyl)benzamide]
≥ 80%: percent control (mortality, anti-feedant effect or growth inhibition) at 200 ppm [1] | percent control (mortality, anti-feedant effect or growth inhibition) at 200 ppm [2] | percent control (mortality or growth inhibition) at 200 ppm [4]

CC(NC(=O)c1cc(C(F)(F)F)cc(S(=O)(=O)C(F)(F)F)c1)c1nccnc1-c1ccc(C#N)cn1 (centres unmarked) [P15, N-[1-[3-(5-cyano-2-pyridyl)pyra-zin-2-yl]ethyl]-3-(trifluoromethyl)-5-(trifluoromethylsulfonyl)benza-mide]
≥ 80%: percent control (mortality, anti-feedant effect or growth inhibition) at 200 ppm [1] | percent control (mortality, anti-feedant effect or growth inhibition) at 200 ppm [2] | percent control (mortality or growth inhibition) at 200 ppm [4]

CC(NC(=O)c1cc(C(F)(F)F)nc(C2(C#N)CC2)c1)c1nccnc1-c1ccc(C#N)cn1 (centres unmarked) [P16, 2-(1-cyanocyclopropyl)-N-[1-[3-(5-cyano-2-pyridyl)pyrazin-2-yl]eth-yl]-6-(trifluoromethyl)pyridine-4-carboxamide]
≥ 80%: percent control (mortality, anti-feedant effect or growth inhibition) at 200 ppm [1] | percent control (mortality, anti-feedant effect or growth inhibition) at 200 ppm [2] | percent control (mortality or growth inhibition) at 200 ppm [3] | percent control (mortality or growth inhibition) at 200 ppm [4]

CC(NC(=O)c1cc(C2CC2)nc(C(F)(F)F)c1)c1nccnc1-c1ccc(C#N)cn1 (centres unmarked) [P17, N-[1-[3-(5-cyano-2-pyridyl)pyra-zin-2-yl]ethyl]-2-cyclopropyl-6-(trifluoromethyl)pyridine-4-carboxamide]
≥ 80%: percent control (mortality, anti-feedant effect or growth inhibition) at 200 ppm [1] | percent control (mortality, anti-feedant effect or growth inhibition) at 200 ppm [2] | percent control (mortality or growth inhibition) at 200 ppm [4]

CC(NC(=O)c1cc(C(F)(F)F)cc(C(F)(F)C2CC2)c1)c1nccnc1-c1ccc(C#N)cn1 (centres unmarked) [P18, N-[1-[3-(5-cyano-2-pyridyl)pyra-zin-2-yl]ethyl]-3-[cyclopropyl(difluoro)methyl]-5-(trifluoromethyl)benzamide]
≥ 80%: percent control (mortality, anti-feedant effect or growth inhibition) at 200 ppm [1] | percent control (mortality, anti-feedant effect or growth inhibition) at 200 ppm [2] | percent control (mortality or growth inhibition) at 200 ppm [4]

CC(NC(=O)c1cc(C(F)(F)F)cc(C(F)(F)C2CC2)c1)c1nccnc1-c1ccc(OCC(F)F)cn1 (centres unmarked) [P30, 3-[cyclopropyl(difluoro)methyl]-N-[1-[3-[5-(2,2-difluoroethoxy)-2-pyridyl]pyrazin-2-yl]ethyl]-5-(trifluoromethyl)benzamide]
≥ 80%: percent control (mortality or growth inhibition) at 200 ppm [4]

CC(NC(=O)c1cc(C2CC2)nc(C(F)(F)F)c1)c1nccnc1-c1ncc(OCC(F)F)cn1 (centres unmarked) [P35, 2-cyclopropyl-N-[1-[3-[5-(2,2-difluoroethoxy)pyrimidin-2-yl]pyrazin-2-yl]ethyl]-6-(trifluoromethyl)pyridine-4-carboxamide]
≥ 80%: percent control (mortality, anti-feedant effect or growth inhibition) at 200 ppm [1] | percent control (mortality, anti-feedant effect or growth inhibition) at 200 ppm [2] | percent control (mortality or growth inhibition) at 200 ppm [4]

CC(NC(=O)c1cc(OC(F)(F)F)cc(C2(C#N)CC2)c1)c1nccnc1-c1ccc(C#N)cn1 (centres unmarked) [P45, 3-(1-cyanocyclopropyl)-N-[1-[3-(5-cyano-2-pyridyl)pyrazin-2-yl]ethyl]-5-(trifluorometh-oxy)benzamide]
≥ 80%: percent control (mortality, anti-feedant effect or growth inhibition) at 200 ppm [1] | percent control (mortality or growth inhibition) at 200 ppm [4]
